Patent US20220324835A1 (Nurix Therapeutics, Inc., priority 2018, published 2022)

Columns and labels:
Cbl-b [1] = target: T1, Cbl-b (Homo sapiens, UniProt Q13191); assay: Cbl-b activity assay (Cbl-b inhibition assay), TR-FRET of Cbl-b interaction with UbcH5B-Ub; assay type: biochemical; settings: assay buffer with 100 mM NaCl, 60 nM Src kinase; read-out: Cbl-b activity IC50
Description: The ability of candidate compounds to inhibit Cbl-b activity was measured by monitoring the interaction of Cbl-b with UbcH5B-Ub in the presence of the candidate compound.
Fluorescently labeled UbcH5B-Ub was prepared by conjugating ubiquitin (Ub), labeled at its N-terminus with Bodipy-Fluorescein, to UbcH5B, an E2 enzyme, harboring a cysteine to lysine mutation at position 85. […] After incubation in the presence of the candidate compound, the plate was incubated for an additional 1.5 hours in the presence of 60 nM Src kinase with 1 mM ATP and 5 mM MgCl2 (final concentrations). […] The plate was incubated for 1 hour.
Column marked with an asterisk (*) were tested as described above with assay buffer containing 50 mM NaCl instead of 100 mM NaCl and 30 nM Src kinase instead of 60 nM Src kinase. The resulting data for the Cbl-b binding assay was solvent corrected and double referenced prior to analysis. All data were globally fit to a steady-state affinity and kinetic binding model where applicable). Fit parameters were derived from a 1:1 binding model using the Biacore T200 Evaluation Software V2.0 (GE Healthcare) (Table 2).

Cbl-b [2] = target: T1, Cbl-b; assay: Cbl-b inhibition assay (Cbl-b activity assay, FRET, Biological Example 1; 100 mM NaCl, 60 nM Src kinase); assay type: biochemical; settings: upper bound stated in text lists; read-out: IC50 values in the Cbl-b inhibition assay of Biological Example 1
Text: FIG. 1A and FIG. 1B show a series of diagrams depicting the activity assay utilized to assay inhibition of Cbl-b activity by a Cbl-b inhibitor. FIG. 1A: The activity assay mixture comprises an N-terminal biotinylated Avi-tagged Cbl-b, an E2 enzyme (i.e., UbcH5B) irreversibly conjugated to Bodipy-Fluorescein tagged ubiquitin (i.e., UbcH5B-Ub), a Src kinase, streptavidin-terbium, and assay buffer. Phosphorylation of Cbl-b by the Src kinase allows UbcH5B-Ub to bind to Cbl-b and bring the Bodipy-Fluorescein tagged ubiquitin in proximity to the streptavidin-terbium bound to the N-terminal biotinylated Avi-tagged Cbl-b. […] FIG. 1B: In the presence of a Cbl-b inhibitor, such as one described herein, Cbl-b is unable to bind UbcH5B-Ub. The lack of a FRET signal indicates Cbl-b is inhibited by the Cbl-b inhibitor. Ub indicates ubiquitin; N-Avi indicates biotinylated Avi-tag at the N-terminus of Cbl-b; inhibitor indicates Cbl-b inhibitor.
The lack of a FRET signal indicates Cbl-b is inhibited by the Cbl-b inhibitor. In FIG. 1A and FIG. 1B, Ub indicates ubiquitin; N-Avi indicates biotinylated Avi-tag at the N-terminus of Cbl-b; and inhibitor indicates Cbl-b inhibitor.

T1 sequence (Q13191 36-427): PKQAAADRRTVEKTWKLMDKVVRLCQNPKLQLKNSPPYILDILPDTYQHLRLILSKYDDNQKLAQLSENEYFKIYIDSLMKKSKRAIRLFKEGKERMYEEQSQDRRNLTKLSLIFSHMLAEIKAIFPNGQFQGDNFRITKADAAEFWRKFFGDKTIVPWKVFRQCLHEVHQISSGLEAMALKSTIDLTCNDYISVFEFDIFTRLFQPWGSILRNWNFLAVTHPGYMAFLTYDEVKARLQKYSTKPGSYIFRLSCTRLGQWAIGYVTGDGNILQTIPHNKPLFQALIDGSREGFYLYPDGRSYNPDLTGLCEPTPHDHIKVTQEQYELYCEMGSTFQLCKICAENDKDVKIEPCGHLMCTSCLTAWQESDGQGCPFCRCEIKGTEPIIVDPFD

Row | SMILES | IC50 (Cbl-b [1]) | IC50 (Cbl-b [2])
1 | CN(c1cc2c(c(C(F)(F)F)c1)CN(c1cccc([C@@](C)(F)C(F)(F)c3nncn3C)c1)C2=O)[C@@H]1CNC[C@H]1F [Example 551, 6-(((3R,4R)-4-fluoropyrrolidin-3-yl)(methyl)amino)-2-(3-((R)-1,1,2-trifluoro-1-(4-methyl-4H-1,2,4-triazol-3-yl)propan-2-yl)phenyl)-4-(trifluoromethyl)iso-indolin-1-one] | < 100 nM | ≤ 100 nM
2 | C[C@@H]1CN(Cc2cc3c(c(C(F)(F)F)c2)CN(c2cccc(C4(Cc5nncn5C)COC4)c2)C3=O)C[C@H](C)O1 [Example 664, 6-(((cis)-2,6-dimethylmorpholino)methyl)-2-(3-(3-((4-methyl-4H-1,2,4-triazol-3-yl)methyl)oxetan-3-yl)phenyl)-4-(trifluoromethyl)isoindolin-1-one] | < 100 nM | ≤ 100 nM
3 | CN1CC[C@@H](O)[C@H](Cc2cc3c(c(C(F)(F)F)c2)CN(c2cccc(C4(Cc5nncn5C)COC4)c2)C3=O)C1 (single isomer, unassigned) [Compound 533] | < 100 nM | ≤ 100 nM
4 | C[C@H](Cc1nncn1C)c1cccc(NC(=O)c2cc(C(=O)N3CC[C@@](C)(N)C3)ccn2)c1 [Compound 230, 4-((R)-3-amino-3-methylpyrrolidine-1-carbonyl)-N-(3-((R)-1-(4-methyl-4H-1,2,4-triazol-3-yl)propan-2-yl)phenyl)picolinamide 2,2,2-trifluoroacetate] | 3000 to 10000 nM | ≤ 10000 nM
5 | C[C@H](Cc1nncn1C)c1cc(C2=CCOCC2)nc(N2Cc3c(cccc3C(F)(F)F)C2=O)c1 [Example 685, (R)-2-(6-(3,6-dihydro-2H-pyran-4-yl)-4-(1-(4-methyl-4H-1,2,4-triazol-3-yl)propan-2-yl)pyridin-2-yl)-4-(trifluoromethyl)isoindolin-1-one] | 301 to 1000 nM | ≤ 1000 nM
6 | C[C@H](Cc1nncn1C)c1cccc(NC(=O)c2cc(C(=O)NC3CCOC3)ccn2)c1 (stereo partly drawn) [Compound 228, N2-(3-((R)-1-(4-methyl-4H-1,2,4-triazol-3-yl)propan-2-yl)phenyl)-N4-(tetrahydrofuran-3-yl)pyridine-2,4-dicarboxamide] | 3000 to 10000 nM | ≤ 10000 nM
7 | Cn1cnnc1CC1(c2cccc(N3Cc4c(cc(CC5CNCCC5=O)cc4C(F)(F)F)C3=O)c2)COC1 (centres unmarked) [Compound 530, 2-(3-(3-((4-methyl-4H-1,2,4-triazol-3-yl)methyl)oxetan-3-yl)phenyl)-6-((4-oxopiperidin-3-yl)methyl)-4-(trifluoromethyl)isoindolin-1-one] | < 100 nM | ≤ 100 nM
8 | Cn1cnnc1CC1(c2cccc(N3Cc4c(cc(CN5CCOC(CCO)C5)cc4C(F)(F)F)C3=O)c2)COC1 (centres unmarked) [Example 717, 6-{[2-(2-hydroxyethyl)morpholin-4-yl]methyl}-2-(3-{3-[(4-methyl-1,2,4-triazol-3-yl)methyl]oxetan-3-yl}phenyl)-4-(trifluoromethyl)-3H-isoindol-1-one] | < 100 nM | ≤ 100 nM
9 | Cn1cnnc1CC1(c2cccc(N3Cc4c(cc(CN5CCc6cnccc6C5)cc4C(F)(F)F)C3=O)c2)COC1 [Example 648, 6-((3,4-dihydro-2,6-naphthyridin-2(1H)-yl)methyl)-2-(3-(3-((4-methyl-4H-1,2,4-triazol-3-yl)methyl)oxetan-3-yl)phenyl)-4-(trifluoromethyl)isoindolin-1-one] | < 100 nM | ≤ 100 nM
10 | Cn1cnnc1CC1(c2cccc(N3Cc4c(cc(CN5CCOC(CC(F)(F)F)C5)cc4C(F)(F)F)C3=O)c2)COC1 (centres unmarked) [Example 715, 2-(3-(3-((4-methyl-4H-1,2,4-triazol-3-yl)methyl)oxetan-3-yl)phenyl)-6-((2-(2,2,2-trifluoroethyl)morpholino)methyl)-4-(trifluoromethyl)isoindolin-1-one] | < 100 nM | ≤ 100 nM
11 | Cc1c[nH]nc1S[C@@H](C)c1ccnc(NC(=O)c2ccc3ccccc3n2)c1 [Compound 128a, (S)-N-(4-(1-((4-methyl-1H-pyrazol-3-yl)thio)ethyl)pyridin-2-yl)quinoline-2-carboxamide] | 1000 to 3000 nM | ≤ 10000 nM
12 | COc1ccc2c(c1)CN(Cc1cc3c(c(C(F)(F)F)c1)CN(c1cccc(C4(Cc5nncn5C)COC4)c1)C3=O)CC2 [Example 661, 6-((7-methoxy-3,4-dihydroisoquinolin-2(1H)-yl)methyl)-2-(3-(3-((4-methyl-4H-1,2,4-triazol-3-yl)methyl)oxetan-3-yl)phenyl)-4-(trifluoromethyl)isoindolin-1-one] | < 100 nM | ≤ 100 nM
13 | C[C@@H]1CCN(Cc2cc3c(c(C(F)(F)F)c2)CN(c2cccc(C4(Cc5nncn5C)COC4)c2)C3=O)C[C@@H]1F [Example 639a, 6-(((3R,4R)-3-fluoro-4-methylpiperidin-1-yl)methyl)-2-(3-(3-((4-methyl-4H-1,2,4-triazol-3-yl)methyl)oxetan-3-yl)phenyl)-4-(trifluoromethyl)isoindolin-1-one] | < 100 nM | ≤ 100 nM
14 | Cc1ccn(CC(C)c2cccc(NC(=O)c3cccc(C(F)(F)F)n3)c2)n1 (centres unmarked) [Compound 216, N-(3-(1-(3-methyl-1H-pyrazol-1-yl)propan-2-yl)phenyl)-6-(trifluoromethyl)picolinamide] | 3000 to 10000 nM | ≤ 10000 nM
15 | Cn1cnnc1CC1(c2cccc(N3Cc4c(cc(CN5CC[C@@H]6NCCO[C@@H]6C5)cc4C(F)(F)F)C3=O)c2)COC1 (relative stereo) [Example 713, rel-6-[(4aR,8aS)-octahydropyrido[3,4-b][1,4]oxazin-6-ylmethyl]-2-(3-{3-[(4-methyl-1,2,4-triazol-3-yl)methyl]oxetan-3-yl}phenyl)-4-(trifluoromethyl)-3H-isoindol-1-one] | < 100 nM | ≤ 100 nM
16 | Cn1cnnc1CC1(c2cccc(N3Cc4c(cc(C(O)C(F)(F)F)cc4C(F)(F)F)C3=O)c2)COC1 (centres unmarked) [Example 580, 2-(3-(3-((4-Methyl-4H-1,2,4-triazol-3-yl)methyl)oxetan-3-yl)phenyl)-6-(2,2,2-trifluoro-1-hydroxyethyl)-4-(trifluoromethyl)isoindolin-1-one] | < 100 nM | ≤ 100 nM
17 | C[C@@H]1CN(Cc2cc(C(=O)Nc3cccc(C4(Cc5nncn5C)COC4)c3)nc(C3CC3)c2)CCO1 [Compound 501, 6-cyclopropyl-N-(3-{3-[(4-methyl-1,2,4-triazol-3-yl)methyl]oxetan-3-yl}phenyl)-4-{[(2R)-2-methylmorpholin-4-yl]methyl}pyridine-2-carboxamide] | < 100 nM | ≤ 100 nM
18 | Cn1cnnc1C(F)(F)[C@@](C)(F)c1cccc(N2Cc3c(cccc3C(F)(F)F)C2=O)c1 [Compound 296b, (S)-2-(3-(1,1,2-trifluoro-1-(4-methyl-4H-1,2,4-triazol-3-yl)propan-2-yl)phenyl)-4-(trifluoromethyl)isoindolin-1-one] | 3000 to 10000 nM | ≤ 10000 nM
19 | Cn1cnnc1CC1(c2cccc(N3Cc4c(cc(CN5CCOC6(CCOC6)C5)cc4C(F)(F)F)C3=O)c2)COC1 (centres unmarked) [Example 712, 6-((2,6-dioxa-9-azaspiro[4.5]decan-9-yl)methyl)-2-(3-(3-((4-methyl-4H-1,2,4-triazol-3-yl)methyl)oxetan-3-yl)phenyl)-4-(trifluoromethyl)isoindolin-1-one] | < 100 nM | ≤ 100 nM
